Results as given in article PMC4364445 (Chemical Science, 2015).

Tests used:
mice = settings: dietary administration, ref [61]; cited from earlier work
rodent = settings: chronic dietary exposure, ref [40],[49]; cited from earlier work
[1] = test system: human intestinal microsomes (HIM); assay: Biocolloid reactor bead LC-MS/MS DNA adduct quantitation, HIM; assay type: biochemical; settings: 250 μM 2-AAF, 4 h; organ comparison
male rats = settings: intraperitoneal, ref [60]; cited from earlier work
cyt P450 1B1 supersomes = molecular target: T1, cyt P450 1B1 supersomes (Homo sapiens, UniProt Q16678); assay: ECL enzyme/DNA array DNA damage rate, cyt P450 1B1; assay type: biochemical; settings: pH 7.4
T1 sequence (Q16678 1-543): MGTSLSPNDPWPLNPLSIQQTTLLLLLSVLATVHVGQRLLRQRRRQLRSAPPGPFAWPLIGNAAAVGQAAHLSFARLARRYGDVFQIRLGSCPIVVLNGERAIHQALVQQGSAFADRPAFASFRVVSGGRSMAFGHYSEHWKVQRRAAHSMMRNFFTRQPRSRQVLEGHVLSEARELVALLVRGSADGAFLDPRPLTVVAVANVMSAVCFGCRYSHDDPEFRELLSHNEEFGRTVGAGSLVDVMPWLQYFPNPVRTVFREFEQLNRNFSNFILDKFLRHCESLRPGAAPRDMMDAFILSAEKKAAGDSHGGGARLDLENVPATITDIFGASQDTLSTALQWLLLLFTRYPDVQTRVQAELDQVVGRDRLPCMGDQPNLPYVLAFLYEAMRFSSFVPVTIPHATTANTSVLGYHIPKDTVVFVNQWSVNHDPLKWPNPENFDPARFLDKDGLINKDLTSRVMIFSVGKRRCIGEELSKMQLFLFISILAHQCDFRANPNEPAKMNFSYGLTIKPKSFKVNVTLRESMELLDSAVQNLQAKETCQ

[2] = test system: human organ tissue enzymes (liver, lung, intestine, kidney microsomes with or without cytosol); assay: ECL enzyme/DNA array DNA damage rate, comparison across organ enzymes; settings: pH 7.4
cyt P450 1A2 supersomes = molecular target: T2, cyt P450 1A2 supersomes (Homo sapiens, UniProt P05177); assay: ECL enzyme/DNA array DNA damage rate, cyt P450 1A2; assay type: biochemical; settings: 250 μM 2-AAF, pH 7.4; cyt P450 1A2 compared to cyt P450s 2A6, 3A5 and 1B1
T2 sequence (P05177 2-516 limits assumed): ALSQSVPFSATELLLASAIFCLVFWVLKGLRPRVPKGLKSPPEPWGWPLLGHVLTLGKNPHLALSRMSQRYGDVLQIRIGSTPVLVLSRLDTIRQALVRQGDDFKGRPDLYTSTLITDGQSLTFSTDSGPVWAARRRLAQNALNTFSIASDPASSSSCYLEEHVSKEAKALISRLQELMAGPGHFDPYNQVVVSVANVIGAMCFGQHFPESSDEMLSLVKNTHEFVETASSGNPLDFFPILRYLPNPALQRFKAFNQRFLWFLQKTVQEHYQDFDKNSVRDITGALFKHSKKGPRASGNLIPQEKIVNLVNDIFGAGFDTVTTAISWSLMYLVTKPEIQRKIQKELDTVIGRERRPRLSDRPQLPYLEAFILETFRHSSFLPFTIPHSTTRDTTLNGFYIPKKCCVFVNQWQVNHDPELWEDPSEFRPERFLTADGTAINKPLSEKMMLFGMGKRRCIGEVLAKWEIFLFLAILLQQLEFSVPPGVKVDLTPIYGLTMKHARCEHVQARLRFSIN

[3] = test system: human organ microsomes, cytosols and cyt P450 supersomes; assay: Biocolloid reactor bead LC-MS/MS DNA adducts, comparison across enzyme sources; settings: 250 μM 2-AAF, 4 h; all enzyme sources with cytosol
[4] = test system: cyt P450 supersomes (3A4, 2A6, 3A5) with or without cytosol; assay: ECL enzyme/DNA array DNA damage rate, comparison across cyt P450 supersomes; assay type: biochemical, human; settings: 1 mM styrene, pH 7.4; supersomes + cytosol vs supersomes

CC(=O)Nc1ccc2c(c1)Cc1ccccc1-2 [2-AAF, 2-acetylaminofluorene]
DNA adduct levels, bladder vs liver (mice): higher DNA adduct levels in bladder than in liver | formation of tumors, organ order (rodent): liver > intestine > kidney | total levels of adducts 8 and 9 (LC-MS/MS) [1]: highest for intestine | DNA adduct levels, liver vs bladder (male rats): higher levels of DNA adduct levels in liver than in bladder | DNA damage-related activity (ECL array) (cyt P450 1B1 supersomes; 250 μM 2-AAF): small | order of DNA damage rates across organs (ECL array) ([2]; 250 μM 2-AAF, microsomes with cytosolic enzymes included): kidney > intestine > lung > liver | relative DNA damage rate (ECL array) (cyt P450 1A2 supersomes): significantly larger rate of DNA damage | adduct 9 in the presence of cytosol enzymes (LC-MS/MS) [3]: not detected

C=Cc1ccccc1 [styrene]
decrease of rate of DNA damage when using cyt P450 supersomes and cytosol (ECL array) [4]: 10 fold | DNA damage activity (ECL array) (cyt P450 1B1 supersomes; 1 mM styrene): low activity | change of rate of DNA damage upon using microsomes and cytosol (ECL array) ([2]; 1 mM styrene, microsomes + cytosol vs microsomes): halved
